{"source": "patent US20080081053A1", "about": "“Treatment Method” (priority 2004, published 2008)", "tested_on": "advanced AML", "assay": "Phase 2 clinical study in patients with advanced AML", "type": "in vivo, human", "settings": "for %myeloblasts in bone marrow: patient with HI for neutrophils, 36% at baseline", "experimental": "In a Phase 2 clinical study, 24 patients, 18 years or older, with advanced AML were treated with 12.5 mg AP23573 as a 30-minute intravenous infusion daily for 5 days every-2-weeks (QDX5, daily). The majority of patients enrolled in this trial had aggressive disease and received AP23573 study treatment as at least a 3rd line treatment regimen. Responses were assessed at the end of each cycle (4 weeks of study treatment). At the end of one cycle, two patients had Hematologic Improvement (HI), including erythroid and neutrophil minor responses. […] Six patients were stable at the end of Cycle 1 (neither response nor disease progression).\nThe criteria for observed responses were as follows: • a Minor Response for erythroid HI: for patients with pre-dosing hemoglobin less than 11 g/dL, […] increase in hemoglobin; for RBC transfusion-dependnt patients, 50% decrease in transfusion requirements • a Minor Response for neutrophil HI: for ANC less than 1.5×10^9 before dosing, ANC increase of at least 100%, but absolute increase less than 1.5×10^9 • Stable Disease/no response: no significant change since baseline (neither response nor progression criteria were met) • Progressive Disease: One of the following: a 50% or greater decrement from maximum response levels in graunulocytes or platelets, a reduction in hemoglobin concentration by at least 2 g/dL, or transfusion dependence"}
{"compound": "CO[C@H]1C[C@@H]2CC[C@@H](C)[C@@](O)(O2)C(=O)C(=O)N2CCCC[C@H]2C(=O)O[C@H]([C@H](C)C[C@@H]2CC[C@@H](OP(C)(C)=O)[C@H](OC)C2)CC(=O)[C@H](C)/C=C(\\C)[C@@H](O)[C@@H](OC)C(=O)[C@H](C)C[C@H](C)/C=C/C=C/C=C/1C", "note": "[AP23573]", "values": [{"measurement": "patients with Hematologic Improvement (HI), including erythroid and neutrophil minor responses", "setting": "24 patients with advanced AML, 12.5 mg, 30-minute i.v. infusion daily for 5 days every 2 weeks (QDX5), at the end of one cycle (4 weeks)", "value": "two"}, {"measurement": "patients stable (neither response nor disease progression)", "setting": "24 patients with advanced AML, end of Cycle 1, 12.5 mg i.v. QDX5", "value": "Six"}, {"measurement": "%myeloblasts in bone marrow", "setting": "at Cycle 2, 12.5 mg i.v. QDX5", "value": 15, "unit": "%"}, {"measurement": "%myeloblasts in bone marrow", "setting": "end of Cycle 1, 12.5 mg i.v. QDX5", "value": 9, "unit": "%"}]}
